According to US20030170890A1, “Pathologically modified myocardial cell, production and use thereof” (priority 1999, published 2003):
No end group written: not given here.

Legend:
Format in all cases: cell-based
[1] = tested on: neonatal rat cardiomyocytes; experiment: Stimulation of isolated neonatal rat cardiomyocytes, recruitment of DCMAG-1 into the sarcomere (immunofluorescence); conditions: for Sarcomere (recruitment of DCMAG-1), 1 × stimulation: 48 hours; for DCMAG-1 stain pattern of stimulated cells (in words): immunofluorescence, anti-DCMAG-1 antibody
Excerpt: Primary cardiomyocytes were isolated from neonatal rats to carry out a hypertrophy experiment. The rats were from one to seven days old and were sacrificed by cervical dislocation. To isolate the cardiomyocytes, the ventricles of the contracting hearts were removed and dissociated using the “Neonatal Cardiomyocyte Isolation System” (Worthington Biochemicals Corporation, Lakewood, N.J.). […] The next day, the trypsin treatment was stopped by adding a trypsin inhibitor, and then a collagenase treatment was carried out at 37° C. for 45 minutes. The cells were dissociated by pipetting, passed through a “cell strainer” (70 μm) and centrifuged at 60×g twice for 5 min. The cell pellet was then taken up in 20 ml of conventional adhesion medium. Seeding took place at a density of 6×10^4 cells/cm^2 on gelatin-coated (Sigma, Deisenhofen) tissue culture dishes or cover glasses. The next morning, the medium was removed by aspiration and, after washing with DMEM (conventional cell culture medium) twice, replaced by cultivation medium.
The cells were stimulated two to six hours after the medium was changed. This was done by treating the cardiomyocytes with various stimulants or combinations of stimulants (see Table 1) for 48 hours, followed by analysis. It was possible to observe the progress of a single stimulation on the basis of the morphological changes in the cells (hypertrophy). Besides the morphological changes, immunofluorescence analyses were also used to determine hypertrophy parameters (DCMAG-1 recruitment).
For the immunofluorescence analysis, the stimulated cardiomyocytes were washed twice with cold PBS and fixed with 3% paraformaldehyde solution in PBS for 20 minutes. After washing again with cold PBS, the cells were incubated twice with 100 mM ammonium chloride in PBS, for 10 min each time, at room temperature. This was followed by a further washing step with cold PBS and incubation with 0.2% Triton-X 100 in PBS at room temperature for 5 min. Washing twice with 0.1% gelatin in PBS was followed by incubation with the first antibody at 37° C. in a “humidity chamber” known to the skilled worker. The first antibody (against the second domain of DCMAG-1) was diluted 1/500 in incubation solution (0.5% Tween-20; 0.5% BSA; in PBS). This was followed after one hour by three washing steps with PBS at room temperature for 5 min each time. The second antibody (obtained from goat, directed against rabbit, Cy3-coupled; Dianova, Hamburg) was diluted 1/200 in incubation solution and likewise incubated with the fixed cells at 37° C. for one hour. After three further washing steps with PBS at room temperature for 5 min each time, and a brief immersion in deionized water, the preparations were covered with a layer of Histosafe (Linaris, Wertheim-Bettingen) and applied to slides. Evaluation took place under a microscope (Axiovert 100S, Cy3 filter set, Zeiss, Göttingen).
Thus, for quantitative evaluation of these stimulation experiments, the recruitment of DCMAG-1 into the sarcomere was measured and categorized as follows: […]

[2] = tested on: cardiomyocytes from the neonatal rat; experiment: Effect of inhibitors on DCMAG-1 translocation in the immunofluorescence test; conditions: cells stimulated with LIF; for effect on translocation of DCMAG-1 into the sarcomere (in words): ISO and ET-1; for % dotted pattern / % filamentous pattern / % in Z-bands: ISO and ET-1 (single dosage) 48 h, without or with 30 μM LY294002, 50 μM SB 203580, 15 nM Go 6976, 50 μM PD98059, ±SEM
Experimental: Neonatal rat cardiomyocytes were prepared as in Example 3 and seeded in a density of 1×10^5 cells per 1.5 cm well (reaction chamber in a cell culture dish). The cell culture dishes contained 1.5 cm cover glasses (Schubert und Weiβ) coated with 1% gelatin solution. The cells were incubated after 24 hours with DMEM and subsequently in maintenance medium with or without stimulus (LIF/ISO and ET-1, concentration as above for single dosage) for 48 hours.
In order to determine the signal transduction pathways required for translocation of DCMAG-1, the stimulated cells were incubated with inhibitors, namely 30 μM LY294002 (Sigma), 50 μM SB 203580 (Sigma), 15 nM Go 6976 (Alexis) or 50 μM PD98059 (NEB) for 48 h (after 24 h, the medium and inhibitors were renewed because the activity of the inhibitors was limited to 24 h in aqueous solution).
After 48 h, the cells were fixed with 4% paraformaldehyde, permeabilized with 0.2% Triton-X100 and stained with anti-DCMAG (polyclonal, own production, 1:500) or α-actinin (as control, Sigma, 1:500) and visualized with anti-mouse or anti-rabbit Cy3 (Jackson Labs, USA) in immunofluorescence. In order to measure the effect of the inhibitors, the cells were visually classified and counted.

[3] = tested on: neonatal rat cardiomyocytes; experiment: Stimulation of neonatal cardiomyocytes by phorbol ester, DCMAG-1 localization visually classified and counted; conditions: for % dotted pattern / % filamentous pattern / % in the sarcomere: 48 hours, ±SEM
Experimental: In these experiments, the cardiomyocytes were prepared as described above and seeded onto cover glasses. Stimulation with various concentrations of PMA was carried out for 48 hours, and the cells were fixed, stained as described above and investigated for DCMAG-1 translocation. The cells were visually classified and counted.

Rat cardiomyocytes = experiment: Localization of DCMAG-1 after PMA or triple stimulation (colocalization with α-actinin / MHC); conditions: double staining with α-actinin or MHC
Experimental: Since PMA brings about translocation of DCMAG-1 into the sarcomeres just like activation of three signal transduction pathways via their receptors, the sarcomeric structures into which DCMAG-1 was translocated with PMA or triple stimulation was investigated. Colocalization experiments were carried out for this purpose. Rat cardiomyocytes were seeded as described above on cover glasses, and correspondingly stimulated, fixed and stained. With the stains, anti-DCMAG-1 antibody (polyclonal) was mixed with either monoclonal α-actinin (Sigma, 1:500) or monoclonal anti-myosin (heavy chain, MHC, Sigma, 1:500). The secondary antibodies used were FITC-anti-mouse (1:250) and Texas Red-anti-rabbit (1:50; both from Dianova).
Evaluation took place with the aid of a fluorescence microscope, a Fuji-CCD camera and Aida software or with the aid of a confocal microscope (Pascal from Zeiss) and LSM software (Zeiss).

[4] = single dosage: PE 100 μM, LIF 1 ng/ml, ET-1 10 nM, ISO 10 μM, IN 100 nM

Molecule	Sarcomere (recruitment of DCMAG-1), 1 × stimulation ([1]; 2 × single dosage)	Sarcomere (recruitment of DCMAG-1), 1 × stimulation [1, 4]	Sarcomere (recruitment of DCMAG-1), 1 × stimulation ([1]; 3 × single dosage)	Sarcomere (recruitment of DCMAG-1), 1 × stimulation ([1]; 4 × single dosage)	DCMAG-1 stain pattern of stimulated cells (in words) [1]	% dotted pattern [2] [%]	% filamentous pattern [2] [%]	% in Z-bands [2] [%]	other results
insulin	(−) (fewer than 2 cells per cover glass)	(−) (fewer than 2 cells per cover glass)	–	–	–	–	–	–	–
ET-1: hormone / signal molecule stimulating the ETA and ETB endothelin receptors (CSCSSLMDKECVYFCHLDIIW; not fully specified (bridges); ends and bridges not checked; UniProt P05305 53-73, looked up)	(−) (fewer than 2 cells per cover glass)	(−) (fewer than 2 cells per cover glass)	(−) (fewer than 2 cells per cover glass)	(−) (fewer than 2 cells per cover glass)	filamentous structures	–	–	–	–
LIF: cytokine acting via the LIF receptor, assigned to the interleukin-6 family	(−) (fewer than 2 cells per cover glass)	(−) (fewer than 2 cells per cover glass)	–	–	distributed uniformly over the sarcoplasm	–	–	–	shape of stimulated cells ([1]; single stimulation): elongate shape
Cn1c2ccccc2c2c3c(c4c5ccccc5n(CCC#N)c4c21)CNC3=O [Gö, Gö 6976]	–	–	–	–	–	29.0 ± 2.1	49.0 ± 0.0	22.0 ± 2.1	effect on translocation of DCMAG-1 into the sarcomere (in words) [2]: reducing the translocation
O=c1cc(N2CCOCC2)oc2c(-c3ccccc3)cccc12 [LY, LY294002]	–	–	–	–	–	46.6 ± 5.3	41.2 ± 4.1	11.3 ± 2.0	–
CNC[C@H](O)c1cccc(O)c1 [PE, phenylephrine]	(−) (fewer than 2 cells per cover glass)	(−) (fewer than 2 cells per cover glass)	(−) (fewer than 2 cells per cover glass)	(−) (fewer than 2 cells per cover glass)	distributed uniformly over the sarcoplasm	–	–	–	Sarcomere (recruitment of DCMAG-1), 1 × stimulation ([1]; 5 × single dosage): (−) (fewer than 2 cells per cover glass)
CC(C)NCC(O)c1ccc(O)c(O)c1 (stereo not drawn) [ISO, isoproterenol]	(−) (fewer than 2 cells per cover glass)	(−) (fewer than 2 cells per cover glass)	(+) (2 to 5 cells per cover glass)	(+) (2 to 5 cells per cover glass)	–	–	–	–	Sarcomere (recruitment of DCMAG-1), 1 × stimulation ([1]; 5 × single dosage): (+) (2 to 5 cells per cover glass); recruitment of DCMAG-1 into the sarcomere (in words, summary of Table 1) ([1]; ISO: high concentrations): slight effect
C[S+]([O-])c1ccc(-c2nc(-c3ccncc3)c(-c3ccc(F)cc3)[nH]2)cc1 (stereo not drawn) [SB, SB 203580]	–	–	–	–	–	22.5 ± 5.3	35.5 ± 0.3	41.0 ± 4.9	–
COc1cccc(-c2cc(=O)c3ccccc3o2)c1N [PD, PD98059]	–	–	–	–	–	58.5 ± 10.7	31.6 ± 7.4	10.1 ± 3.4	effect on translocation of DCMAG-1 into the sarcomere (in words) [2]: reducing the translocation
CCCCCCCCCCCCCC(=O)O[C@@H]1[C@@H](C)[C@@]2(O)[C@@H](C=C(CO)C[C@]3(O)C(=O)C(C)=C[C@@H]23)[C@@H]2C(C)(C)[C@]12OC(C)=O [PMA, phorbol myristate acetate]	–	–	–	–	–	–	–	–	translocation of DCMAG-1 protein (in words) ([3]; 1 nM PMA): translocated into the sarcomere; % dotted pattern ([3]; 1 nM PMA): 46.0 ± 2.0%; % filamentous pattern ([3]; 1 nM PMA): 20.0 ± 1.0%; % in the sarcomere ([3]; 1 nM PMA): 34.0 ± 3.0%; % dotted pattern ([3]; 100 nM PMA): 47.0 ± 4.0%; % filamentous pattern ([3]; 100 nM PMA): 13.0 ± 2.0%; % in the sarcomere ([3]; 100 nM PMA): 40.0 ± 2.0%; sarcomeric structure into which DCMAG-1 is translocated (Rat cardiomyocytes): translocates into the M-line
